How the values were obtained:
Experiment in all cases: relative viability (nuclei count vs DMSO), 5 days (fraction); higher = more cells survive
LCLC-97TM1 = conditions: first compound 8 µM
Method in brief: (§1)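 Lung cancer cell lines in 1536-well plates got either a single drug or a fixed anchor-drug dose together with five library-drug doses (not always all listed) in √10 steps, by pin tool, on the day after seeding. Nuclei were counted after 5 days, and relative viability is the treated-to-vehicle ratio of nuclei counts. Values are medians of duplicate plates.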

NCI-H838 = tested on: NCI-H838
Method in brief: as §1

UMC-11 = tested on: UMC-11
Method in brief: as §1

NCI-H358 = tested on: NCI-H358
Method in brief: as §1

H3255 = tested on: H3255
Method in brief: as §1

PC-3 [JPC-3] = tested on: PC-3 [JPC-3]
Method in brief: as §1

NCI-H1666 = tested on: NCI-H1666
Method in brief: as §1

NCI-H1792 = tested on: NCI-H1792
Method in brief: as §1

NCI-H2228 = tested on: NCI-H2228
Method in brief: as §1

LK-2 = tested on: LK-2
Method in brief: as §1

NCI-H1651 = tested on: NCI-H1651
Method in brief: as §1

NCI-H661 = tested on: NCI-H661
Method in brief: as §1

SMILES: O=c1[nH]c2ccccc2n1C1CCN(CCCC(c2ccc(F)cc2)c2ccc(F)cc2)CC1 [Pimozide] + C[C@@H](Oc1cc(-c2cnn(C3CCNCC3)c2)cnc1N)c1c(Cl)ccc(F)c1Cl [Crizotinib] (partner 1 µM)
- relative viability (LCLC-97TM1): 0.413
- relative viability (NCI-H838; first compound 0.08 µM): 0.855
- relative viability (NCI-H838; first compound 0.253 µM): 0.808
- relative viability (NCI-H838; first compound 0.8 µM): 0.786
- relative viability (NCI-H838; first compound 2.53 µM): 0.774
- relative viability (NCI-H838; first compound 8 µM): 0.955
- relative viability (UMC-11; first compound 0.08 µM): 0.574
- relative viability (UMC-11; first compound 0.253 µM): 0.618
- relative viability (UMC-11; first compound 0.8 µM): 0.634
- relative viability (UMC-11; first compound 2.53 µM): 0.584
- relative viability (UMC-11; first compound 8 µM): 0.705
- relative viability (NCI-H358; first compound 0.08 µM): 0.573
- relative viability (NCI-H358; first compound 0.253 µM): 0.519
- relative viability (NCI-H358; first compound 0.8 µM): 0.448
- relative viability (NCI-H358; first compound 2.53 µM): 0.335
- relative viability (NCI-H358; first compound 8 µM): 0.546
- relative viability (H3255; first compound 0.253 µM): 0.801
- relative viability (H3255; first compound 0.8 µM): 0.764
- relative viability (H3255; first compound 2.53 µM): 0.983
- relative viability (H3255; first compound 8 µM): 0.875
- relative viability (PC-3 [JPC-3]; first compound 0.253 µM): 0.878
- relative viability (PC-3 [JPC-3]; first compound 0.8 µM): 0.91
- relative viability (PC-3 [JPC-3]; first compound 2.53 µM): 0.915
- relative viability (PC-3 [JPC-3]; first compound 8 µM): 0.854
- relative viability (NCI-H1666; first compound 0.08 µM): 0.882
- relative viability (NCI-H1666; first compound 0.253 µM): 0.913
- relative viability (NCI-H1666; first compound 0.8 µM): 1.02
- relative viability (NCI-H1666; first compound 2.53 µM): 0.751
- relative viability (NCI-H1666; first compound 8 µM): 0.789
- relative viability (NCI-H1792; first compound 0.08 µM): 0.95
- relative viability (NCI-H1792; first compound 0.253 µM): 0.944
- relative viability (NCI-H1792; first compound 0.8 µM): 0.937
- relative viability (NCI-H1792; first compound 2.53 µM): 0.937
- relative viability (NCI-H1792; first compound 8 µM): 0.971
- relative viability (NCI-H2228; first compound 0.08 µM): 0.406
- relative viability (NCI-H2228; first compound 0.253 µM): 0.572
- relative viability (NCI-H2228; first compound 0.8 µM): 0.406
- relative viability (NCI-H2228; first compound 2.53 µM): 0.38
- relative viability (NCI-H2228; first compound 8 µM): 0.354
- relative viability (LK-2; first compound 0.08 µM): 0.225
- relative viability (LK-2; first compound 0.253 µM): 0.224
- relative viability (LK-2; first compound 0.8 µM): 0.243
- relative viability (LK-2; first compound 2.53 µM): 0.225
- relative viability (LK-2; first compound 8 µM): 0.234
- relative viability (NCI-H1651; first compound 0.08 µM): 0.801
- relative viability (NCI-H1651; first compound 0.8 µM): 0.818
- relative viability (NCI-H1651; first compound 2.53 µM): 0.764
- relative viability (NCI-H1651; first compound 8 µM): 0.933
- relative viability (NCI-H661; first compound 0.08 µM): 0.975
- relative viability (NCI-H661; first compound 0.8 µM): 0.921
- relative viability (NCI-H661; first compound 2.53 µM): 0.995
- relative viability (NCI-H661; first compound 8 µM): 0.962

— the supplement of paper PMC10307832
